Usually Kd stands for the concentration at which binding is half-saturated. A low value points to a tighter complex.

The target of the experiment is JAK2 (JH1 domain-catalytic, Y1007F, Y1008F) kinase (Homo sapiens (Human), UniProt O60674, Y1007F/Y1008F). The experiment in a line: JAK2 JH1 Domain Binding Assay. The following applies: qPCR readout. The procedure, abridged: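 JH1 catalytic domain (Y1007F/Y1008F) expressed as NFkB DNA-binding-domain fusion in HEK293 cells, DNA-tagged. Competition with immobilized biotinylated ligand on streptavidin beads, 1 h at RT in PBS/Tween/BSA/DTT; bound kinase eluted with free ligand and quantified by qPCR.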
Sequence of JAK2 (JH1 domain-catalytic, Y1007F, Y1008F) kinase (O60674 849-1124 Y1007F/Y1008F): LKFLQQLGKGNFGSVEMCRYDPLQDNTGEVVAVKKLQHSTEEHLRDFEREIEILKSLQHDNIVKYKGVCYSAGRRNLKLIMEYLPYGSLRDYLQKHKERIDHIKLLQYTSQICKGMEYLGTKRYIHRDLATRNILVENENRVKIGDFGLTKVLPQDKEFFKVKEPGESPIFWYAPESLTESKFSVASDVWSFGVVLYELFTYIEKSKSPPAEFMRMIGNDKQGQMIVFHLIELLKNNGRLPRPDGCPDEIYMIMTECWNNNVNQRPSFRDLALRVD
Regarding `COCc1cc2nc(N3CC[C@@H](N(C)C(=O)Nc4cc(C(F)(F)F)cn(C)c4=O)C[C@H]3C)cnc2[nH]1` [Example I-127-b, 1-((2R,4R)-1-(6-(methoxymethyl)-5H-pyrrolo[2,3-b]pyrazin-2-yl)-2-methylpiperidin-4-yl)-1-methyl-3-(1-methyl-2-oxo-5-(trifluoromethyl)-1,2-dihydropyridin-3-yl)urea], the dissociation constant (Kd) is 50 to 1000 nM.

Take “(S)-1-methyl-3-(1-methyl-2-oxo-5-(trifluoromethyl)-1,2-dihydropyridin-3-yl)-1-(3-(3-((tetrahydrofuran-3-yl)oxy)-1H-pyrazolo[3,4-b]pyridin-5-yl)bicyclo[1.1.1]pentan-1-yl)urea and (R)-1-methyl-3-(1-methyl-2-oxo-5-(trifluoromethyl)-1,2-dihydropyridin-3-yl)-1-(3-(3-((tetrahydrofuran-3-yl)oxy)-1H-pyrazolo[3,4-b]pyridin-5-yl)bicyclo[1.1.1]pentan-1-yl)urea [Example I-166-a]”: the equilibrium dissociation constant (Kd) lay in the range of 50 to 1000 nM.

In the case of `COCc1cc2nc(N3CC[C@@H]4[C@@H](C3)OCCN4C(=O)Nc3cc(C(F)(F)F)cn(C)c3=O)cnc2[nH]1` [Example I-164-b, (4aR,8aR)-6-(6-(methoxymethyl)-5H-pyrrolo[2,3-b]pyrazin-2-yl)-N-(1-methyl-2-oxo-5-(trifluoromethyl)-1,2-dihydropyridin-3-yl)octahydro-1H-pyrido[3,4-b][1,4]oxazine-1-carboxamide], the Kd was in the range of 10 to 50 nM.

For `COc1c[nH]c2ncc(N3CCC(N(C)C(=O)Nc4cc(C(F)(F)F)cn(C)c4=O)CC3)cc12` [Example I-94, 1-(1-(3-methoxy-1H-pyrrolo[2,3-b]pyridin-5-yl)piperidin-4-yl)-1-methyl-3-(1-methyl-2-oxo-5-(trifluoromethyl)-1,2-dihydropyridin-3-yl)urea], the Kd was < 10 nM.

On to `COCCOc1n[nH]c2ncc(N3CC[C@H]4[C@H](C3)OCCN4C(=O)Nc3cc(C(F)(F)F)cn(C)c3=O)cc12` [Example I-162-a, (4aS,8aS)-6-(3-(2-methoxyethoxy)-1H-pyrazolo[3,4-b]pyridin-5-yl)-N-(1-methyl-2-oxo-5-(trifluoromethyl)-1,2-dihydropyridin-3-yl)octahydro-1H-pyrido[3,4-b][1,4]oxazine-1-carboxamide], for which the Kd was < 10 nM.

Regarding `CN(C(=O)Nc1cc(C(F)(F)F)cn(C)c1=O)C12CC(c3cnc4[nH]nc(OC[C@H]5COCCO5)c4c3)(C1)C2` [Example I-158, (R)-1-(3-(3-((1,4-dioxan-2-yl)methoxy)-1H-pyrazolo[3,4-b]pyridin-5-yl)bicyclo[1.1.1]pentan-1-yl)-1-methyl-3-(1-methyl-2-oxo-5-(trifluoromethyl)-1,2-dihydropyridin-3-yl)urea], the Kd was < 10 nM.

`Cc1cc(NC(=O)N(C)C2CCN(c3cnccn3)CC2)cc(C(F)(F)F)c1` [Example I-8, 1-methyl-3-(3-methyl-5-(trifluoromethyl)phenyl)-1-(1-(pyrazin-2-yl)piperidin-4-yl)urea] registered a Kd of 10 to 50 nM.

Regarding `CN(C(=O)Nc1cc(C(F)(F)F)cn(C)c1=O)[C@@H]1CCN(c2cnc3[nH]c(=O)n(C)c3c2)C[C@@H]1F` [Example I-103-b, 1-((3S,4R)-3-fluoro-1-(1-methyl-2-oxo-2,3-dihydro-1H-imidazo[4,5-b]pyridin-6-yl)piperidin-4-yl)-1-methyl-3-(1-methyl-2-oxo-5-(trifluoromethyl)-1,2-dihydropyridin-3-yl)urea], the Kd is < 10 nM.

Regarding `CN(C(=O)Nc1cc(C(F)(F)F)cn(C)c1=O)C1CC2(C1)CN(c1cnc3[nH]ccc3n1)C2` [Example I-55, 1-(2-(5H-pyrrolo[2,3-b]pyrazin-2-yl)-2-azaspiro[3.3]heptan-6-yl)-1-methyl-3-(1-methyl-2-oxo-5-(trifluoromethyl)-1,2-dihydropyridin-3-yl)urea], the equilibrium dissociation constant (Kd) is < 10 nM.

`COc1c[nH]c2ncc([C@H]3CC[C@@H](N(C)C(=O)Nc4cc(C(F)(F)F)cn(C)c4=O)CC3)nc12` [Example I-171, cis-1-(4-(7-methoxy-5H-pyrrolo[2,3-b]pyrazin-2-yl)cyclohexyl)-1-methyl-3-(1-methyl-2-oxo-5-(trifluoromethyl)-1,2-dihydropyridin-3-yl)urea] had an equilibrium dissociation constant (Kd) of 50 to 1000 nM.

Regarding `CC1CN(C(=O)Nc2cc(C(F)(F)F)cn(C)c2=O)C2(CCN(c3cnc4[nH]cc(F)c4n3)CC2)C1` (single isomer, unassigned) [Example I-54-b], the Kd was 50 to 1000 nM.

Turning to `C[C@H]1C[C@@H](N(C)C(=O)Nc2cc(C(F)(F)F)cn(C)c2=O)CCN1c1cnc2[nH]ccc2n1` [Example I-126-a, 1-methyl-1-((2S,4S)-2-methyl-1-(5H-pyrrolo[2,3-b]pyrazin-2-yl)piperidin-4-yl)-3-(1-methyl-2-oxo-5-(trifluoromethyl)-1,2-dihydropyridin-3-yl)urea], the Kd is < 10 nM.

`CC(=O)Nc1cnc(N2CCC(CC(=O)Nc3cccc(C(F)(F)F)c3)CC2)cn1` [Example I-6, 2-(1-(5-acetamidopyrazin-2-yl)piperidin-4-yl)-N-(3-(trifluoromethyl)phenyl)acetamide]: the Kd is 50 to 1000 nM.

With `CC(=O)Nc1cnc(N2CCC(N(C)C(=O)Nc3cc(C(F)(F)F)cc(C)n3)CC2)cn1` [Example I-23, N-(5-(4-(1-methyl-3-(6-methyl-4-(trifluoromethyl)pyridin-2-yl)ureido)piperidin-1-yl)pyrazin-2-yl)acetamide], the Kd was < 10 nM.

`CO[C@@H]1CN(c2cnc3[nH]ncc3c2)CC[C@H]1N(C)C(=O)Nc1cc(C(F)(F)F)cn(C)c1=O` [Example I-109-a, 1-((3R,4R)-3-methoxy-1-(1H-pyrazolo[3,4-b]pyridin-5-yl)piperidin-4-yl)-1-methyl-3-(1-methyl-2-oxo-5-(trifluoromethyl)-1,2-dihydropyridin-3-yl)urea] displayed a Kd of 10 to 50 nM.

For `Cn1cc(C(F)(F)F)cc(NC(=O)C2(C3CCN(c4cnc5[nH]ccc5n4)CC3)CC2)c1=O` [Example I-85, 1-(1-(5H-pyrrolo[2,3-b]pyrazin-2-yl)piperidin-4-yl)-N-(1-methyl-2-oxo-5-(trifluoromethyl)-1,2-dihydropyridin-3-yl)cyclopropane-1-carboxamide], the Kd is < 10 nM.

For the compound `Cc1n[nH]c2ncc(N3CCC(N(C)C(=O)Nc4cc(C(F)(F)F)cn(C)c4=O)CC3)cc12` [Example I-28, 1-methyl-1-(1-(3-methyl-1H-pyrazolo[3,4-b]pyridin-5-yl)piperidin-4-yl)-3-(1-methyl-2-oxo-5-(trifluoromethyl)-1,2-dihydropyridin-3-yl)urea], the Kd is < 10 nM.

Regarding `CN(C(=O)Nc1cc(C(F)(F)F)ccn1)[C@@H]1CCN(c2cnc3[nH]ncc3c2)C[C@H]1F` [Example I-175, 1-((3R,4R)-3-fluoro-1-(1H-pyrazolo[3,4-b]pyridin-5-yl)piperidin-4-yl)-1-methyl-3-(4-(trifluoromethyl)pyridin-2-yl)urea], the Kd was < 10 nM.

Turning to `COc1n[nH]c2ncc(N3CCC(N(C)C(=O)Nc4cncc(C(F)(F)F)c4)CC3)cc12` [Example I-139, 1-(1-(3-methoxy-1H-pyrazolo[3,4-b]pyridin-5-yl)piperidin-4-yl)-1-methyl-3-(5-(trifluoromethyl)pyridin-3-yl)urea], the Kd was < 10 nM.

Take `Cn1cc(C(F)(F)F)cc(NC(=O)C2(C3CCN(c4cnc5[nH]cc(F)c5n4)CC3)CC2)c1=O` [Example I-65, 1-(1-(7-fluoro-5H-pyrrolo[2,3-b]pyrazin-2-yl)piperidin-4-yl)-N-(1-methyl-2-oxo-5-(trifluoromethyl)-1,2-dihydropyridin-3-yl)cyclopropane-1-carboxamide]: the Kd was < 10 nM.

Take `CN(C(=O)Nc1cc(C(F)(F)F)cn(C)c1=O)C1CCN(c2cnc3[nH]c(C4CC4)cc3n2)CC1` [Example I-25, 1-(1-(6-cyclopropyl-5H-pyrrolo[2,3-b]pyrazin-2-yl)piperidin-4-yl)-1-methyl-3-(1-methyl-2-oxo-5-(trifluoromethyl)-1,2-dihydropyridin-3-yl)urea]: the Kd is < 10 nM.

As to `CN(C(=O)Nc1cc(C2CC2)cn([C@H]2CCCOC2)c1=O)C1CCN(c2cnc3[nH]ncc3c2)CC1` (single isomer, unassigned) [Example I-183-a, (S)- or (R)-1-(1-(1H-pyrazolo[3,4-b]pyridin-5-yl)piperidin-4-yl)-3-(5-cyclopropyl-2-oxo-1-(tetrahydro-2H-pyran-3-yl)-1,2-dihydropyridin-3-yl)-1-methylurea], the Kd is < 10 nM.

The compound `C[C@@H]1CN(C(=O)Nc2cc(C(F)(F)F)cn(C)c2=O)C2(CCN(c3cnc4[nH]cc(C#N)c4n3)CC2)C1` (single isomer, unassigned) [Example I-60-a] registered a Kd of 50 to 1000 nM.

`CO[C@H]1CN(c2cnc3[nH]c(C)cc3n2)CC[C@@H]1N(C)C(=O)Nc1cc(C(F)(F)F)cn(C)c1=O` [Example I-117-b, 1-((3S,4S)-3-methoxy-1-(6-methyl-5H-pyrrolo[2,3-b]pyrazin-2-yl)piperidin-4-yl)-1-methyl-3-(1-methyl-2-oxo-5-(trifluoromethyl)-1,2-dihydropyridin-3-yl)urea]: the dissociation constant Kd was in the range of 50 to 1000 nM.

`CN(C(=O)Nc1cc(C(F)(F)F)cn(C)c1=O)C1CCCN(c2cnc3[nH]ccc3n2)CC1` (single isomer, unassigned) [Example I-41-a, (R)- or (S)-1-(1-(5H-pyrrolo[2,3-b]pyrazin-2-yl)azepan-4-yl)-1-methyl-3-(1-methyl-2-oxo-5-(trifluoromethyl)-1,2-dihydropyridin-3-yl)urea] gave a Kd of 1000 to 5000 nM.

`CC(=O)Nc1cnc(N2CCC(N(C)C(=O)Nc3cc(C)cc(C(F)(F)F)c3)CC2)cn1` [Example I-13, N-(5-(4-(1-methyl-3-(3-methyl-5-(trifluoromethyl)phenyl)ureido)piperidin-1-yl)pyrazin-2-yl)acetamide]: the Kd was < 10 nM.

For the origin of these results see patent publication US20240116892A1, “HETEROCYCLIC AMIDE AND UREA COMPOUNDS AS JAK2 INHIBITORS” (Ajax Therapeutics, Inc., priority 2022, published 2024).
